Measured values taken from ChEMBL document CHEMBL1127784, “Design and synthesis of peptidomimetic inhibitors of HIV-1 protease and renin. Evidence for improved transport” (J Med Chem, 1994).

Columns and labels:
Renin = target: T1, Renin (Homo sapiens, UniProt P00797); assay: In vitro inhibitory concentration against renin
T1 sequence (P00797 whole entry): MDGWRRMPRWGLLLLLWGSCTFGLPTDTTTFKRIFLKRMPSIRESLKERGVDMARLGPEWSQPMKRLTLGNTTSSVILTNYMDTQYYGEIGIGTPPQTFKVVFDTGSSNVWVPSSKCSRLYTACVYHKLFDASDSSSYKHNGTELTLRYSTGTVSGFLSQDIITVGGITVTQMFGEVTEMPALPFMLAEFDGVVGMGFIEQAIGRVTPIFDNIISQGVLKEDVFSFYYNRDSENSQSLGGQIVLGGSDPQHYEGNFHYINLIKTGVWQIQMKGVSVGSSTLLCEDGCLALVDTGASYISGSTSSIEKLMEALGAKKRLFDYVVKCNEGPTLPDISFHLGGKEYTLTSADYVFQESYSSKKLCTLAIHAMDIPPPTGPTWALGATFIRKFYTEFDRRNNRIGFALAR

[1] = target: Human immunodeficiency virus type 1 protease (Human immunodeficiency virus 1) (UniProt Q72874); assay: Tested for the relative potency against HIV-1 protease in the cellular antiviral assay
[2] = target: Human immunodeficiency virus type 1 protease (Human immunodeficiency virus 1, UniProt Q72874); assay: In vitro inhibitory concentration against HIV-1 protease

Row | Structure (SMILES) | IC50 (Renin) [µM] | IC95 [1] [µM] | IC50 [2] [µM]
1 | CC(C)C[C@H](NC(=O)[C@H](Cc1ccccc1)C[C@H](O)[C@H](Cc1ccccc1)NC(=O)OC(C)(C)C)C(=O)N[C@@H](Cc1ccccc1)C(N)=O | – | 6 | –
2 | CC(C)C[C@@]1(C2=C(O)[C@](Cc3ccccc3)(C[C@H](O)[C@H](Cc3ccccc3)NC(=O)OC(C)(C)C)N=C2)N=CC([C@@H](Cc2ccccc2)C(N)=O)=C1O | – | 1.5 | 0.01
3 | CC(C)C[C@H](O)[C@H](O)[C@H](CC1CCCCC1)C1=C(O)[C@](CC(C)C)(C2=C(O)[C@@](CC(=O)N3CCOCC3)(Cc3ccccc3)N=C2)N=C1 | 18 | – | –

Further lines, results first:

Row | IC50 (Renin) [µM] | IC95 [1] [µM] | IC50 [2] [µM] | Structure (SMILES)
4 | 0.6 | – | – | CC(C)C[C@@H](C(=O)N[C@@H](CC1CCCCC1)[C@@H](O)[C@@H](O)CC(C)C)C1=C(O)[C@@](CC(=O)N2CCOCC2)(Cc2ccccc2)N=C1
5 | – | 0.8 | 0.0013 | CC(C)C[C@@]1(C2=C(O)[C@](Cc3ccccc3)(C[C@H](O)[C@H](Cc3ccccc3)NC(=O)O[C@@H]3CCOC3)N=C2)N=CC([C@@H](Cc2ccccc2)C(N)=O)=C1O
